14 molecules from patent publication US10087148B2, “Quinazolines as biogenic amine transport modulators” (THE UNITED STATES OF AMERICA AS REPRESENTED BY THE …, priority 2014, dated 2018) can be followed below.

The target in test [1] is norepinephrine transporter (NET) (Rattus norvegicus, UniProt Q63380). Kind of test: [3H]norepinephrine (NE) uptake inhibition in rat brain synaptosomes. Type of test: biochemical. The settings on record: for NE Uptake Emax / EC50: rat brain synaptosomes, 10 nM [3H]norepinephrine, mean ± SD; for EC50: read-out: NE Uptake EC50; for Emax: read-out: NET Uptake Emax; for IC50: read-out: NET Uptake IC50. The procedure:
Uptake inhibition assay for the norepinephrine transporter was conducted in rat brain synaptosomes as described elsewhere with minor modifications (Rothman et al., Synapse 39, 32-41 (2001)). Freshly removed whole brain minus cerebellum and caudate was homogenized in 10% ice-cold sucrose with 12 strokes of a hand-held Potter-Elvehjem homogenizer followed by centrifugation at 1000×g for 10 minutes. The supernatants were saved on ice and used immediately. Transporter activity at NET was assessed using 10 nM [^3H]norepinephrine. The assay buffer was Krebs-phosphate buffer containing 154.4 mM NaCl, 2.9 mM KCl, 1.1 mM CaCl2, 0.83 mM MgCl2, 5 mM glucose, 1 mg/mL ascorbic acid, and 50 μM pargyline. […] Uptake inhibition assays were conducted at 37° C. and were initiated by adding 100 μL of tissue to 900 μL assay buffer containing test drug and [^3H]norepinephrine. Test drugs were diluted in assay buffer containing 1 mg/mL bovine serum albumin. Nonspecific uptake was measured by incubating in the presence of 10 μM indatraline. The reactions were stopped after 10 minutes by rapid vacuum filtration with a cell harvester (BRANDEL) over GF/B filters (Whatman) presoaked in wash buffer maintained at 25° C. (10 mM Tris-HCl, pH 7.4/150 mM NaCl). Filters were rinsed with 6 mL wash buffer and retained tritium was quantified by a MicroBeta liquid scintillation counter (PerkinElmer) after overnight extraction in 0.6 mL of liquid scintillation cocktail (Cytoscint, ICN). The data from three experiments were pooled and fit to a dose-response curve equation (using Kaleidagraph), to yield an Emax and EC50 value.

Test [2] addresses serotonin transporter (SERT) (Rattus norvegicus (Rat), UniProt P31652). Briefly: [3H]serotonin (5-HT) uptake inhibition in rat brain synaptosomes. Type of test: biochemical. The note with it: for Emax: read-out: SERT Uptake Emax; for 5HT Uptake Emax / EC50: rat brain synaptosomes, 5 nM [3H]serotonin, mean ± SD. The procedure: Uptake inhibition assay for the serotonin transporter was conducted in rat brain synaptosomes as described elsewhere with minor modifications (Rothman et al., Synapse 39, 32-41 (2001)). Freshly removed whole brain minus cerebellum and caudate was homogenized in 10% ice-cold sucrose with 12 strokes of a hand-held Potter-Elvehjem homogenizer followed by centrifugation at 1000×g for 10 min. The supernatants were saved on ice and used immediately. Transporter activity at SERT was assessed using 5 nM [^3H]serotonin. The assay buffer was Krebs-phosphate buffer containing 154.4 mM NaCl, 2.9 mM KCl, 1.1 mM CaCl2, 0.83 mM MgCl2, 5 mM glucose, 1 mg/mL ascorbic acid, and 50 μM pargyline. […] Uptake inhibition assays were conducted at 25° C. and were initiated by adding 100 μL of tissue to 900 μL assay buffer containing test drug and [^3H]serotonin. Test drugs were diluted in assay buffer containing 1 mg/mL bovine serum albumin. Nonspecific uptake was measured by incubating in the presence of 10 μM indatraline. The reactions were stopped after 30 min by rapid vacuum filtration with a cell harvester (BRANDEL) over GF/B filters (Whatman) presoaked in wash buffer maintained at 25° C. (10 mM Tris-HCl, pH 7.4/150 mM NaCl). Filters were rinsed with 6 mL wash buffer and retained tritium was quantified by a MicroBeta liquid scintillation counter (PerkinElmer) after overnight extraction in 0.6 mL of liquid scintillation cocktail (Cytoscint, ICN). The data from three experiments were pooled and fit to a dose-response curve equation (using Kaleidagraph), to yield an Emax and EC50 value.

A further test has as its target DAT (Rattus norvegicus (Rat), UniProt P23977). Kind of test: Inhibition of [3H]WIN35428 binding to rat caudate DAT. The settings on record: [3H]WIN35428, mean ± S.D., n = 3; for IC50: unit as printed in head (text gives 1100 nM where table prints 1.1). The procedure:
All of the test compounds were synthesized as described herein. […] The data from three experiments were pooled and fit to a dose-response curve equation (using KaleidaGraph; Synergy Software, Reading, Pa.) to yield an Emax and IC50 value. […] Selected compounds were also tested for their ability to inhibit [^3H]WIN35428 binding to rat caudate DAT.

The target of test [3] is dopamine transporter (DAT) (Rattus norvegicus (Rat), UniProt P23977). Briefly: [3H]dopamine (DA) uptake inhibition in rat brain (caudate) synaptosomes. In kind it is biochemical. The note with it: for Emax: mean ± S.D., n = 3, read-out: DAT Uptake Emax; for DA Uptake Emax / EC50: rat caudate synaptosomes, 5 nM [3H]dopamine, mean ± SD. The procedure: Uptake inhibition assay for the dopamine transporter was conducted in rat brain synaptosomes as described elsewhere with minor modifications (Rothman et al., Synapse 39, 32-41 (2001)). Freshly removed caudate was homogenized in 10% ice-cold sucrose with 12 strokes of a hand-held Potter-Elvehjem homogenizer followed by centrifugation at 1000×g for 10 min. The supernatants were saved on ice and used immediately. Transporter activity was assessed using 5 nM [^3H]dopamine. The assay buffer was Krebs-phosphate buffer containing 154.4 mM NaCl, 2.9 mM KCl, 1.1 mM CaCl2, 0.83 mM MgCl2, 5 mM glucose, 1 mg/mL ascorbic acid, and 50 μM pargyline. The selectivity of the uptake assay for DAT was optimized by including 100 nM citalopram and 100 nM desipramine as blockers of SERT and NET in the sucrose solution and assay buffer. Uptake inhibition assays were conducted at 25° C. and were initiated by adding 100 μl of tissue to 900 μL assay buffer containing test drug and [^3H]dopamine. Test drugs were diluted in assay buffer containing 1 mg/mL bovine serum albumin. Nonspecific uptake was measured by incubating in the presence of 10 μM indatraline. The reactions were stopped after 15 minutes by rapid vacuum filtration with a cell harvester (BRANDEL) over GF/B filters (Whatman) presoaked in wash buffer maintained at 25° C. (10 mM Tris-HCl, pH 7.4/150 mM NaCl). Filters were rinsed with 6 mL wash buffer and retained tritium was quantified by a MicroBeta liquid scintillation counter (PerkinElmer) after overnight extraction in 0.6 mL of liquid scintillation cocktail (Cytoscint, ICN). The data from three experiments were pooled and fit to a dose-response curve equation (using Kaleidagraph), to yield an Emax and EC50 value.
All of the test compounds were synthesized as described herein. Next, 8-point dose-response curves were generated for each compound (1-20,000 nM) in the [^3H]DA uptake assay. The data from three experiments were pooled and fit to a dose-response curve equation (using KaleidaGraph; Synergy Software, Reading, Pa.) to yield an Emax and IC50 value. […] Selected compounds were also tested for their ability to inhibit [^3H]WIN35428 binding to rat caudate DAT.

Broadly, the EC50 is the concentration needed to bring the measured effect to its halfway point. Usually Emax stands for the size of the effect at its maximum, as opposed to the concentration needed. For orientation: IC50 means the concentration at which inhibition is half-maximal.

Sequence of serotonin transporter (SERT) (P31652 whole entry): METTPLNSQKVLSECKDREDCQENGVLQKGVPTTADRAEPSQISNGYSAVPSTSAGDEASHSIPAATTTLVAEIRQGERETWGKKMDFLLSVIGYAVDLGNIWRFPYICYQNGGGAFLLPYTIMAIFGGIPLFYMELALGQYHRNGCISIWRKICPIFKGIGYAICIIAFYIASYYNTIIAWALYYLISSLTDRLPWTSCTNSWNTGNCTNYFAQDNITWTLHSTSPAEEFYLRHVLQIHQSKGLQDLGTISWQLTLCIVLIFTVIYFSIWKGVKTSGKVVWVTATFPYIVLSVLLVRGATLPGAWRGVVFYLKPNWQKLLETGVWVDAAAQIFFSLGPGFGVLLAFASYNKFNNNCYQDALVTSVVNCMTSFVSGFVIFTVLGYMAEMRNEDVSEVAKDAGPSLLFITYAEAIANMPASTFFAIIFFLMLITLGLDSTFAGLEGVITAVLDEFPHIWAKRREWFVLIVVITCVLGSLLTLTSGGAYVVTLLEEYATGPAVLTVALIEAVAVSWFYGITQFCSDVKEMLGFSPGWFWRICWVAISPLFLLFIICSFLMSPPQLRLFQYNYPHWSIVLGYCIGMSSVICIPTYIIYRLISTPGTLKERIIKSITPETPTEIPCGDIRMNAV
Sequence of norepinephrine transporter (NET) (Q63380 1-617): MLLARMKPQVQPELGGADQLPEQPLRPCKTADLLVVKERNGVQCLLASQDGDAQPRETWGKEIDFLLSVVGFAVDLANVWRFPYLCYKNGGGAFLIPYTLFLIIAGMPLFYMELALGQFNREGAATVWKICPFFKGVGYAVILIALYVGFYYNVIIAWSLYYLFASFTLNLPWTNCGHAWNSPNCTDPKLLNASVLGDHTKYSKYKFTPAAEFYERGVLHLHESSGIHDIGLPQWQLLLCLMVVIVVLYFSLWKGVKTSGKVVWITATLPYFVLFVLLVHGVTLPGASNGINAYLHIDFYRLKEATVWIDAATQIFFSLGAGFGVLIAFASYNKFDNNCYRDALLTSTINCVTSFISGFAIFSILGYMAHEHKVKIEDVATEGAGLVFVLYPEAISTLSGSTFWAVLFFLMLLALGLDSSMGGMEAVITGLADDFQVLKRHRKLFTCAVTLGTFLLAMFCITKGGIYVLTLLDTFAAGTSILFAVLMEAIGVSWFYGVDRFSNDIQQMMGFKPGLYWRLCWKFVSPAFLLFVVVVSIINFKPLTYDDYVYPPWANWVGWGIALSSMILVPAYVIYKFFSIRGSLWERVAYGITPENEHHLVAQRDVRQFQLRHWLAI
Sequence of DAT (P23977 whole entry): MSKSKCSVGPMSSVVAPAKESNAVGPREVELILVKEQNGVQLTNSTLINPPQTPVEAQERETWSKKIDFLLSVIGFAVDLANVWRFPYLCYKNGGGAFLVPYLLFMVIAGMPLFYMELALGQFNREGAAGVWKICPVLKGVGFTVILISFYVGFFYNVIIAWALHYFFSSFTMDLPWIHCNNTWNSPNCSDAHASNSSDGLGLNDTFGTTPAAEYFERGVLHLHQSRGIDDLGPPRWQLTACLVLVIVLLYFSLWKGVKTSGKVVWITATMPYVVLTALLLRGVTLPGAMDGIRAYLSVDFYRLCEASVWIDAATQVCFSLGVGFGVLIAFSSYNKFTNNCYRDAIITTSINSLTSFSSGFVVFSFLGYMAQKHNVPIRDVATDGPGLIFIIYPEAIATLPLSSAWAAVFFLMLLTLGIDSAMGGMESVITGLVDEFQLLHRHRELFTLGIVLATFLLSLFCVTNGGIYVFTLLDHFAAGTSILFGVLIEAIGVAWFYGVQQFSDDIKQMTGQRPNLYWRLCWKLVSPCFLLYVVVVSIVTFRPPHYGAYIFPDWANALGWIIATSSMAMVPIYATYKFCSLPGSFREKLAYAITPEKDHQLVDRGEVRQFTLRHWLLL
Sequence of dopamine transporter (DAT) (P23977 whole entry): as above

`COC(=O)[C@H]1[C@@H](OC(=O)c2ccccc2)C[C@@H]2CC[C@H]1N2C` [Cocaine, reference compound]: the “NET Uptake Emax” value in test [1] (mean ± S.D., n = 3) is on record as 102 ± 2%. Besides, the “SERT Uptake Emax” value in test [2] (mean ± S.D., n = 3) was determined as 98 ± 2%.
`CS(=O)(=O)Nc1ccc(-c2nc(NCC(O)(c3ccccc3)c3ccccc3)c3ccccc3n2)cc1` [Compound 4, N-(4-(4-((2-hydroxy-2,2-diphenylethyl)amino)quinazolin-2-yl)phenyl)methanesulfonamide]: in test [1], the “NE Uptake Emax” value is on record as 70 ± 2 % I, the EC50 amounted to 426 ± 49 nM and the Emax worked out at 70 ± 2%. The IC50 in test [1] (mean ± S.D., n = 3) was 426 ± 49 nM. At DAT, the maximum response (Emax) turned out to be 47 ± 7% and the IC50 came out at 970 ± 650 nM. The Emax in test [2] (mean ± S.D., n = 3) is 55 ± 3%. In addition, in test [2], the “5HT Uptake Emax” value turned out to be 55 ± 3 % I and the EC50 was 50 ± 14 nM. In test [3], the Emax was 70 ± 2%, the “DA Uptake Emax” value amounted to 70 ± 2 % I and the EC50 is 11 ± 2 nM.
Turning to `Cc1cc(NS(C)(=O)=O)ccc1-c1nc(NCC(c2ccccc2)c2ccncc2)c2ccccc2n1` (stereo not drawn) [Compound 29, N-(3-methyl-4-(4-((2-phenyl-2-(pyridin-4-yl)ethyl)amino)quinazolin-2-yl)phenyl)methanesulfonamide], in test [1], the “NE Uptake Emax” value turned out to be 71 ± 3 % I, the EC50 was 31 ± 7 nM and the Emax was 71 ± 3%. Besides, the IC50 in test [1] (mean ± S.D., n = 3) was 31 ± 7 nM. Also, on DAT, the Emax is 72 ± 7% and the IC50 worked out at 3150 ± 1110 nM. Moreover, the Emax in test [2] (mean ± S.D., n = 3) is 58 ± 3%. Moreover, in test [2], the “5HT Uptake Emax” value was determined as 58 ± 3 % I and the EC50 stood at 8 ± 2.8 nM. Besides, in test [3], the Emax is 74 ± 4%, the “DA Uptake Emax” value is recorded as 74 ± 4 % I and the EC50 amounted to 7.4 ± 2 nM.
With `Cc1cc(NS(C)(=O)=O)ccc1-c1nc(NCC(c2ccccc2)c2ccccc2)c2ccccc2n1` [Compound 52, N-(4-(4-((2,2-diphenylethyl)amino)quinazolin-2-yl)-3-methylphenyl)methanesulfonamide], the Emax in test [1] worked out at 65 ± 3%; at DAT it was 60 ± 7%; in test [2] (mean ± S.D., n = 3) it was 50 ± 2%; in test [3] it was 60 ± 2%. Further, the concentration for half-maximal inhibition (IC50) in test [1] (mean ± S.D., n = 3) was 144 ± 30 nM.
For the molecule `CS(=O)(=O)Nc1ccc(-c2nc(NCC(c3ccccc3)c3ccccc3)c3ccccc3n2)c(Cl)c1` [Compound 53, N-(3-chloro-4-(4-((2,2-diphenylethyl)amino)quinazolin-2-yl)phenyl)methanesulfonamide], the Emax in test [1] stood at 67 ± 2%; at DAT it was 30 ± 3%; in test [2] (mean ± S.D., n = 3), 51 ± 2%; in test [3], 67 ± 1%. Besides, the IC50 in test [1] (mean ± S.D., n = 3) is 47 ± 10 nM.
For `CSc1ncc(-c2nc(NCC(c3ccccc3)c3ccccc3)c3ccccc3n2)cn1` [SRI-29338], the Emax came out at 62 ± 3% in test [1]; 63 ± 4% on DAT; 52 ± 3% in test [2] (mean ± S.D., n = 3); 71 ± 2% in test [3]. In addition, the half-inhibitory concentration (IC50) in test [1] (mean ± S.D., n = 3) came out at 204 ± 47 nM; on DAT it was 1180 ± 930 nM.
Consider `CNc1ncc(-c2nc(NCC(c3ccccc3)c3ccccc3)c3ccccc3n2)cn1` [SRI-29554], for which the Emax is 78 ± 2% in test [1]; 59 ± 6% at DAT; 60 ± 3% in test [2] (mean ± S.D., n = 3); 71 ± 1% in test [3]. For the same molecule, the IC50 in test [1] (mean ± S.D., n = 3) was 179 ± 27 nM; at DAT it was 980 ± 460 nM.
For the molecule `Cn1cc2cc(-c3nc(NCC(c4ccccc4)c4ccccc4)c4ccccc4n3)ccc2n1` [SRI-29776], the Emax came out at 71 ± 3% in test [1]; 58 ± 3% at DAT; 61 ± 2% in test [2] (mean ± S.D., n = 3); 69 ± 2% in test [3]. Besides, the IC50 in test [1] (mean ± S.D., n = 3) amounted to 229 ± 43 nM; at DAT it was 6090 ± 970 nM.
Take `CN(C)c1ncc(-c2nc(NCC(O)(c3ccccc3)c3ccccc3)c3ccccc3n2)cn1` [SRI-29982]: the Emax in test [1] is 71 ± 2%; at DAT it was 47 ± 6%; in test [2] (mean ± S.D., n = 3) it was 51 ± 1%; in test [3], 73 ± 2%. Further, the half-inhibitory concentration (IC50) is 259 ± 41 nM in test [1] (mean ± S.D., n = 3) and 2460 ± 1210 nM on DAT.
`OC(CNc1nc(-c2ccc3[nH]ccc3c2)nc2ccccc12)(c1ccccc1)c1ccccc1` [SRI-29983]: the Emax in test [1] turned out to be 73 ± 6%; on DAT, 55 ± 3%; in test [2] (mean ± S.D., n = 3), 57 ± 2%; in test [3], 70 ± 2%. Moreover, the IC50 in test [1] (mean ± S.D., n = 3) stood at 203 ± 79 nM; at DAT it was 1290 ± 340 nM.
As to `c1ccc(C(CNc2nc(-c3cnc4nccn4c3)nc3ccccc23)c2ccccn2)cc1` (stereo not drawn) [SRI-30507], the Emax in test [1] amounted to 77 ± 2%; on DAT it was 62 ± 7%; in test [2] (mean ± S.D., n = 3), 54 ± 2%; in test [3], 71 ± 2%. The IC50 in test [1] (mean ± S.D., n = 3) was determined as 132 ± 16 nM; on DAT, 4800 ± 1810 nM.
`OC(CNc1nc(-c2cnc3nccn3c2)nc2ccccc12)(c1ccccc1)c1ccccc1` [SRI-30508]: the maximal effect (Emax) in test [1] came out at 76 ± 9%; at DAT it was 34 ± 3%; in test [2] (mean ± S.D., n = 3), 56 ± 1%; in test [3], 65 ± 1%. For the same molecule, the IC50 in test [1] (mean ± S.D., n = 3) is 69 ± 18 nM; at DAT, 150 ± 90 nM.
`c1ccc(C(CNc2nc(-c3ccc4nccn4c3)nc3ccccc23)C2CCCCC2)cc1` (stereo not drawn) [SRI-30513]: the Emax in test [1] came to 65 ± 4%; at DAT, 50 ± 4%; in test [2] (mean ± S.D., n = 3), 59 ± 4%; in test [3], 72 ± 2%. Moreover, the IC50 was determined as 153 ± 55 nM in test [1] (mean ± S.D., n = 3) and 2970 ± 1030 nM at DAT.
For `c1ccc(C(CNc2nc(-c3ccc4nccn4c3)nc3ccccc23)c2cccnc2)cc1` (stereo not drawn) [SRI-30946], the maximal response (Emax) worked out at 75 ± 3% in test [1]; 44 ± 3% at DAT; 59 ± 3% in test [2] (mean ± S.D., n = 3); 70 ± 2% in test [3]. The IC50 stood at 78 ± 17 nM in test [1] (mean ± S.D., n = 3) and 1170 ± 320 nM on DAT.
